Results taken from ChEMBL document CHEMBL1201862, “PubChem BioAssay data set” (2004).
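The compound was tested at five concentrations on cells cultured in 96-well plates, with a 48-hour exposure period. GI50: concentration for 50% inhibition of growth.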 Active and inactive are the calls of the source. Rule as the data show it: active = GI50 up to about 1.1 µM and inactive = higher.

Tests used:
Experiment in all cases: inhibition of tumour cell growth, NCI panel, 48 h
HOP-62 = tested on: HOP-62
NCI-H23 = tested on: NCI-H23
SK-MEL-28 = tested on: SK-MEL-28
BT-549 = tested on: BT-549
ACHN = tested on: ACHN
UACC-62 = tested on: UACC-62
MDA-N = tested on: MDA-N
EKVX = tested on: EKVX
SNB-19 = tested on: SNB-19
SR = tested on: SR
T47D = tested on: T47D
NCI-H460 = tested on: NCI-H460
OVCAR-3 = tested on: OVCAR-3
SN12C = tested on: SN12C
SF-268 = tested on: SF-268
UACC-257 = tested on: UACC-257
A549 = tested on: A549
SK-OV-3 = tested on: SK-OV-3
A498 = tested on: A498

Measured: GI50

COc1ccc(-n2sc3ncc([N+](=O)[O-])cc3c2=O)cc1
inactive: HOP-62 > 100 µM | NCI-H23 > 100 µM | SK-MEL-28 > 100 µM | BT-549 > 100 µM | ACHN > 100 µM | UACC-62 > 100 µM | MDA-N > 100 µM | EKVX > 100 µM | SNB-19 > 100 µM | SR > 100 µM | T47D > 100 µM | NCI-H460 > 100 µM | OVCAR-3 > 100 µM | SN12C > 100 µM | SF-268 > 100 µM | UACC-257 > 100 µM | A549 > 100 µM | SK-OV-3 > 100 µM

C(/Cc1ccc2c(c1)OCO2)=N\N=C1NCCCN1
inactive: HOP-62 28.4 µM | NCI-H23 > 100 µM | SK-MEL-28 > 100 µM | BT-549 64.7 µM | ACHN 28 µM | UACC-62 > 100 µM | A498 19.5 µM | MDA-N > 100 µM | EKVX 48.9 µM | SNB-19 > 100 µM | SR 22.5 µM | T47D 19.5 µM | NCI-H460 19 µM | OVCAR-3 80.2 µM | SN12C 54.3 µM | SF-268 93.8 µM | UACC-257 > 100 µM | A549 36.7 µM | SK-OV-3 42.1 µM

CCOC(=O)c1nc2ccc(C(F)(F)F)cc2nc1NCc1ccc(OC)c(OC)c1
inactive: HOP-62 58.3 µM | NCI-H23 72.8 µM | BT-549 51.3 µM | ACHN 53.1 µM | UACC-62 73.6 µM | A498 58.2 µM | MDA-N 51.3 µM | EKVX 44.8 µM | SNB-19 94.2 µM | SR 29.6 µM | T47D 48.1 µM | NCI-H460 35.6 µM | OVCAR-3 45.8 µM | SF-268 83.9 µM | UACC-257 61.4 µM | A549 50.2 µM | SK-OV-3 > 100 µM

O=C(CCNC12CC3CC(CC(C3)C1)C2)c1ccccc1
inactive: NCI-H23 20.1 µM | SK-MEL-28 22.3 µM | BT-549 28.7 µM | ACHN 25.9 µM | UACC-62 19.6 µM | A498 17.4 µM | MDA-N 16 µM | SNB-19 47 µM | SR 13.4 µM | T47D 20.6 µM | NCI-H460 19.6 µM | OVCAR-3 > 10 µM | SN12C 16.6 µM | SF-268 24.6 µM | UACC-257 15.3 µM | A549 30.1 µM

OCC1CCCCCCCCCCC12SCCCS2 (stereo not drawn)
inactive: HOP-62 > 100 µM | NCI-H23 > 100 µM | SK-MEL-28 > 100 µM | BT-549 > 100 µM | ACHN > 100 µM | UACC-62 > 100 µM | MDA-N > 100 µM | EKVX > 100 µM | SNB-19 > 100 µM | SR > 100 µM | T47D 84.3 µM | NCI-H460 > 100 µM | OVCAR-3 > 100 µM | SF-268 > 100 µM | A549 > 100 µM | SK-OV-3 > 100 µM

CCOC(=O)c1c(N)sc2c1C(C(=O)OCC)CCCC2 (stereo not drawn)
inactive: HOP-62 > 100 µM | NCI-H23 62.1 µM | SK-MEL-28 > 100 µM | BT-549 > 100 µM | ACHN 83.6 µM | UACC-62 78.3 µM | A498 20.2 µM | MDA-N 69.5 µM | EKVX 85.3 µM | SNB-19 71.6 µM | SR 34.6 µM | T47D 22.5 µM | NCI-H460 35.2 µM | SN12C 91 µM | UACC-257 57.9 µM | A549 88.9 µM

CC1(C)CC(=O)c2c(nc(SSc3nc4c(c(-c5ccc(Br)cc5)c3C#N)C(=O)CC(C)(C)C4)c(C#N)c2-c2ccc(Br)cc2)C1
inactive: HOP-62 > 10 µM | NCI-H23 > 10 µM | SK-MEL-28 > 10 µM | BT-549 > 10 µM | ACHN > 10 µM | A498 > 10 µM | MDA-N > 10 µM | EKVX > 10 µM | SNB-19 > 10 µM | SR > 10 µM | T47D > 10 µM | NCI-H460 > 10 µM | OVCAR-3 > 10 µM | SN12C > 10 µM | SF-268 > 10 µM | UACC-257 > 10 µM | A549 > 10 µM | SK-OV-3 > 10 µM

CCOC(=O)C1=CNC(C(=O)OCC)C1c1cccn1-c1ccc(Cl)cc1[N+](=O)[O-] (stereo not drawn)
inactive: HOP-62 10 µM | NCI-H23 36.6 µM | SK-MEL-28 26.2 µM | BT-549 22.8 µM | ACHN 30.3 µM | UACC-62 15.7 µM | A498 50.7 µM | MDA-N 22 µM | EKVX 17.9 µM | SR 25.7 µM | T47D 24.2 µM | NCI-H460 15.4 µM | OVCAR-3 10.6 µM | SN12C 18.2 µM | SF-268 18.2 µM | UACC-257 24.4 µM | A549 32.1 µM | SK-OV-3 32.7 µM

ClC(Cl)(Cl)C1CCOC1n1nc2ccccc2n1 (stereo not drawn)
inactive: HOP-62 > 100 µM | NCI-H23 > 100 µM | BT-549 > 100 µM | UACC-62 > 100 µM | A498 > 100 µM | MDA-N > 100 µM | EKVX > 100 µM | SR > 100 µM | T47D > 100 µM | NCI-H460 > 100 µM | OVCAR-3 > 100 µM | SN12C > 100 µM | SF-268 > 100 µM | UACC-257 > 100 µM | A549 > 100 µM | SK-OV-3 > 100 µM

O=c1[nH]c2ccc(CC(=S)N3CCN(c4ccccc4)CC3)cc2o1
inactive: HOP-62 > 88.5 µM | NCI-H23 > 100 µM | SK-MEL-28 > 100 µM | BT-549 > 100 µM | ACHN > 100 µM | UACC-62 > 66.4 µM | A498 > 30 µM | MDA-N > 49.9 µM | EKVX 37.9 µM | SNB-19 > 100 µM | SR > 58.3 µM | T47D > 100 µM | NCI-H460 > 100 µM | OVCAR-3 > 100 µM | SN12C > 100 µM | SF-268 > 76.4 µM | UACC-257 > 100 µM | A549 85.3 µM | SK-OV-3 > 100 µM

Cc1ccc(Nc2nnc3n2S(=O)(=O)c2cc(C)c(Cl)cc2S3)cc1
inactive: HOP-62 6.35 µM | NCI-H23 8.95 µM | SK-MEL-28 19.6 µM | BT-549 5.28 µM | ACHN 27.9 µM | A498 15.4 µM | MDA-N 1.7 µM | EKVX 25.4 µM | SR 2.4 µM | T47D 17.7 µM | NCI-H460 7.23 µM | OVCAR-3 2 µM | SF-268 4.25 µM | UACC-257 34.5 µM | A549 8.39 µM
